Data from paper PMC10035947, “Development of novel anilinoquinazoline-based carboxylic acids as non-classical carbonic anhydrase IX and XII inhibitors” (Journal of Enzyme Inhibition and Medicinal Chemistry, 2023).
Like-named read-outs stand apart in the source and are kept apart here.

Legend:
MCF7 = assay: NCI SRB assay; format: cell-based, human; conditions: MCF7, 5-dose
SNB-75 = assay: NCI SRB assay; format: cell-based, human; conditions: for CC50: read-out: LC50 (the source's name)
CAKI-1 = assay: NCI SRB assay; format: cell-based, human; conditions: for CC50: read-out: LC50 (the source's name)
M14 = assay: NCI SRB assay; format: cell-based, human; conditions: for CC50: read-out: LC50 (the source's name)
hCA XII = target: T1, hCA XII (Homo sapiens, UniProt O43570); assay: stopped flow CO2 hydrase assay; format: biochemical
T1 construct: made in house
Method in brief: (§1)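 Recombinant enzymes assayed by stopped-flow CO2 hydration using 0.2 mM phenol red at 557 nm in 20 mM Hepes pH 7.5 with 20 mM Na2SO4, CO2 1.7–17 mM. Inhibitor and enzyme preincubated 15 min at room temperature.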

hCA IX = target: T2, hCA IX (Homo sapiens, UniProt Q16790); assay: stopped flow CO2 hydrase assay; format: biochemical
T2 construct: made in house
Method in brief: as §1

BT-549 = assay: NCI SRB assay; format: cell-based, human
LOX IMVI = assay: NCI SRB assay; format: cell-based, human
PC-3 = assay: NCI SRB assay; format: cell-based, human; conditions: for CC50: read-out: LC50 (the source's name)
OVCAR-3 = assay: NCI SRB assay; format: cell-based, human
MDA-MB-468 = assay: NCI SRB assay; format: cell-based, human; conditions: for CC50: read-out: LC50 (the source's name)
[1] = tested on: 59 human cancer cell lines representing nine tumour subpanels; assay: NCI SRB assay, panel and subpanel summaries; conditions: for GI50: Homo sapiens; for Selectivity index: full panel MG-MID / subpanel MG-MID
NCI-H522 = assay: NCI SRB assay; format: cell-based, human
NCI-H226 = assay: NCI SRB assay; format: cell-based, human
[2] = Homo sapiens, SNB-75, SNB-75, 5-dose
[3] = Homo sapiens, MDA-MB-468, MDA-MB-468, 5-dose
[4] = Homo sapiens, NCI-H522, NCI-H522, 5-dose

T1 sequence (O43570 25-354): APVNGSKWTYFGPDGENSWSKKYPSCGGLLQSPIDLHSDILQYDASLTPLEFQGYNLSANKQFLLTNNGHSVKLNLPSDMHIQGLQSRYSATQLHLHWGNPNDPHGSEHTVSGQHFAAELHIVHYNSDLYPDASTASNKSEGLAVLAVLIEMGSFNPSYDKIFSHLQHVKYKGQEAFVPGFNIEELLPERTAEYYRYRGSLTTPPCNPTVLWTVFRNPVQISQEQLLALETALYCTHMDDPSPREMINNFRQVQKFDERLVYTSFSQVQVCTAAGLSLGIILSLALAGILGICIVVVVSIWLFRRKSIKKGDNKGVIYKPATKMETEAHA

Cc1ccc(-c2nc(Nc3ccccc3C(=O)O)c3ccccc3n2)cc1 [6b, 2-((2-(p-Tolyl)quinazolin-4-yl)amino)benzoic acid]
GI50 (MCF7): 9.4 µM | TGI (MCF7): 89.9 µM | TGI (MCF7; listed as D - 835857): 8.99E-5 Molar | CC50 (MCF7; read-out: LC50 (the source's name)): < 100 µM | GI50 (SNB-75; [2]): 1.36 µM | CC50 (SNB-75; [2]): > 100 µM | GI% (SNB-75; SNB-75, 10 μM): 84% | Growth Percent (SNB-75; SNB-75, 1.00E-5 Molar): 15.71% | GI50 (SNB-75; SNB-75, 5-dose): 1.4 µM | TGI (SNB-75; SNB-75, 5-dose): 80.3 µM | TGI (SNB-75; SNB-75, 5-dose, listed as D - 835857): 8.03E-5 Molar | CC50 (SNB-75; SNB-75, 5-dose): < 100 µM | GI% (CAKI-1; CAKI-1, 10 μM): 79% | Growth Percent (CAKI-1; CAKI-1, 1.00E-5 Molar): 21.08% | TGI (CAKI-1; CAKI-1, 5-dose): <100 µM | TGI (CAKI-1; CAKI-1, 5-dose, listed as D - 835857): > 1.00E-4 Molar | CC50 (CAKI-1; CAKI-1, 5-dose): < 100 µM | CC50 (CAKI-1; Homo sapiens, CAKI-1, CAKI-1, 5-dose): > 100 µM | GI50 (CAKI-1; Homo sapiens, CAKI-1, 5-dose): 13.8 µM | CC50 (M14; Homo sapiens, M14, M14, 5-dose): > 100 µM | GI50 (M14; Homo sapiens, M14, 5-dose): 15.5 µM | GI% (M14; M14, 10 μM): 87% | Growth Percent (M14; M14, 1.00E-5 Molar): 12.58% | TGI (M14; M14, 5-dose): 77.4 µM | TGI (M14; M14, 5-dose, listed as D - 835857): 7.74E-5 Molar | CC50 (M14; M14, 5-dose): < 100 µM | Selectivity ratio I/XII (hCA XII; KI hCA I / KI hCA XII): 14.1 | Selectivity ratio II/XII (hCA XII; KI hCA II / KI hCA XII): 6.79 | Ki (hCA XII; mean from 3 assays): 7.1 µM | Selectivity ratio II/IX (hCA IX; KI hCA II / KI hCA IX): 1.40 | Ki (hCA IX; mean from 3 assays): 34.4 µM | GI% (BT-549; BT-549, 10 μM): 123% | Growth Percent (BT-549; BT-549, 1.00E-5 Molar): -23.53% | TGI (BT-549; BT-549, 5-dose): 33.8 µM | TGI (BT-549; BT-549, 5-dose, listed as D - 835857): 3.38E-5 Molar | GI50 (BT-549; Homo sapiens, BT-549, 5-dose): 14.6 µM | CC50 (BT-549; Homo sapiens, BT-549, 5-dose, read-out: LC50 (the source's name)): 78.1 µM | GI% (LOX IMVI; 10 μM): 91% | Growth Percent (LOX IMVI; 1.00E-5 Molar): 8.57% | TGI (LOX IMVI; 5-dose): 31.6 µM | TGI (LOX IMVI; 5-dose, listed as D - 835857): 3.16E-5 Molar | GI50 (LOX IMVI; Homo sapiens, 5-dose): 10.2 µM | CC50 (LOX IMVI; Homo sapiens, 5-dose, read-out: LC50 (the source's name)): 97.7 µM | CC50 (PC-3; Homo sapiens, PC-3, PC-3, 5-dose): > 100 µM | GI50 (PC-3; Homo sapiens, PC-3, 5-dose): 12.7 µM | GI% (PC-3; PC-3, 10 μM): 84% | Growth Percent (PC-3; PC-3, 1.00E-5 Molar): 15.75% | TGI (PC-3; PC-3, 5-dose): <100 µM | TGI (PC-3; PC-3, 5-dose, listed as D - 835857): > 1.00E-4 Molar | CC50 (PC-3; PC-3, 5-dose): < 100 µM | GI50 (OVCAR-3; Homo sapiens, OVCAR-3, 5-dose): 13.1 µM | CC50 (OVCAR-3; Homo sapiens, OVCAR-3, 5-dose, read-out: LC50 (the source's name)): > 100 µM | GI% (OVCAR-3; OVCAR-3, 10 μM): 94% | Growth Percent (OVCAR-3; OVCAR-3, 1.00E-5 Molar): 6.01% | TGI (OVCAR-3; OVCAR-3, 5-dose): 5.13E-5 Molar | GI50 (MDA-MB-468; [3]): 8.29 µM | CC50 (MDA-MB-468; [3]): > 100 µM | GI% (MDA-MB-468; MDA-MB-468, 10 μM): 126% | Growth Percent (MDA-MB-468; MDA-MB-468, 1.00E-5 Molar): -26.88% | GI50 (MDA-MB-468; MDA-MB-468, 5-dose): 8.3 µM | TGI (MDA-MB-468; MDA-MB-468, 5-dose, listed as D - 835857): 4.23E-5 Molar | CC50 (MDA-MB-468; MDA-MB-468, 5-dose): < 100 µM | Mean GI % ([1]; 10 μM, all cell lines): 84% | Mean Growth Percent ([1]; 1.00E-5 Molar, all cell lines): 15.81% | GI50 ([1]; read-out: Full panel MG-MID (GI50), full panel): 12 µM | GI50 ([1]; read-out: MG-MID (median GI50), Breast cancer subpanel): 11 µM | GI50 ([1]; read-out: MG-MID (median GI50), CNS cancer subpanel): 8.04 µM | GI50 ([1]; read-out: MG-MID (median GI50), Colon cancer subpanel): 13.7 µM | GI50 ([1]; read-out: MG-MID (median GI50), Leukaemia subpanel): 8.68 µM | GI50 ([1]; read-out: MG-MID (median GI50), Melanoma subpanel): 11.7 µM | GI50 ([1]; read-out: MG-MID (median GI50), Non-small cell lung cancer subpanel): 9.24 µM | GI50 ([1]; read-out: MG-MID (median GI50), Ovarian cancer subpanel): 15.7 µM | GI50 ([1]; read-out: MG-MID (median GI50), Prostate cancer subpanel): 15.2 µM | GI50 ([1]; read-out: MG-MID (median GI50), Renal cancer subpanel): 14.7 µM | Selectivity index ([1]; Breast cancer): 1.09 | Selectivity index ([1]; CNS cancer): 1.49 | Selectivity index ([1]; Colon cancer): 0.87 | Selectivity index ([1]; Leukaemia): 1.38 | Selectivity index ([1]; Melanoma): 1.02 | Selectivity index ([1]; Non-small cell lung cancer): 1.29 | Selectivity index ([1]; Ovarian cancer): 0.76 | Selectivity index ([1]; Prostate cancer): 0.78 | Selectivity index ([1]; Renal cancer): 0.81 | GI50 (NCI-H522; [4]): 4.35 µM | LC50 (NCI-H522; [4]): > 100 µM | GI% (NCI-H522; NCI-H522, 10 μM): 67% | Growth Percent (NCI-H522; NCI-H522, 1.00E-5 Molar): 33.17% | GI50 (NCI-H522; NCI-H522, 5-dose): 4.4 µM | LC50 (NCI-H522; NCI-H522, 5-dose): < 100 µM | TGI (NCI-H522; NCI-H522, 5-dose): 27.1 µM | TGI (NCI-H522; NCI-H522, 5-dose, listed as D - 835857): 2.71E-5 Molar | LC50 (NCI-H226; Homo sapiens, NCI-H226, NCI-H226, 5-dose): > 100 µM | GI50 (NCI-H226; Homo sapiens, NCI-H226, 5-dose): 10.2 µM | GI% (NCI-H226; NCI-H226, 10 μM): 85% | Growth Percent (NCI-H226; NCI-H226, 1.00E-5 Molar): 15.34% | LC50 (NCI-H226; NCI-H226, 5-dose): < 100 µM | TGI (NCI-H226; NCI-H226, 5-dose): 54.2 µM | TGI (NCI-H226; NCI-H226, 5-dose, listed as D - 835857): 5.42E-5 Molar
